In the supplement of paper PMC10307832:

Assays:
Test in all cases: relative viability (nuclei count vs DMSO), 5 days (fraction); higher = more cells survive
[1] = system: SK-LU-1
In short: (§1)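 Relative viability divides the nuclei count in treated wells by that in vehicle wells. Lung cancer cell lines were seeded in 1536-well plates, dosed by pin tool the next day, and fixed and stained after 5 days in one step with final 0.05% Triton X-100, 1% formaldehyde and 1 ug/ml Hoechst. Dosing was a single drug or a fixed anchor-drug dose plus five library-drug doses (not always all listed) in √10 steps, and values are medians of duplicate plates imaged at 4×.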

[2] = system: NCI-H1755
In short: as §1

[3] = system: NCI-H2342
In short: as §1

[4] = system: NCI-H460
In short: as §1

[5] = system: A-427
In short: as §1

[6] = system: PC-3 [JPC-3]
In short: as §1

[7] = system: NCI-H522
In short: as §1

[8] = system: NCI-H358
In short: as §1

[9] = system: NCI-H1975
In short: as §1

[10] = system: HOP-62
In short: as §1

[11] = system: NCI-H1915
In short: as §1

[12] = system: NCI-H2126
In short: as §1

[13] = system: NCI-H1792
In short: as §1

[14] = system: HCC-15
In short: as §1

[15] = system: SW 1573
In short: as §1

[16] = system: NCI-H1734
In short: as §1

[17] = system: LC-2-ad
In short: as §1

[18] = system: NCI-H2228
In short: as §1

[19] = system: NCI-H647
In short: as §1

[20] = system: NCI-H2347
In short: as §1

[21] = system: LXF-289
In short: as §1

[22] = system: RERF-LC-KJ
In short: as §1

[23] = system: LOU-NH91
In short: as §1

[24] = system: HCC-78
In short: as §1

COc1cc(N2CCC(C(N)=O)CC2)ccc1Nc1nc(N)c(Cl)c(Nc2ccccc2S(=O)(=O)C(C)C)n1 [HG-5-88-01] + N=C(N)NC(=N)NCCc1ccccc1 [Phenformin] (partner 250 µM)
relative viability ([1]; first compound 0.04 µM): 0.581
relative viability ([1]; first compound 0.1265 µM): 0.594
relative viability ([1]; first compound 0.4 µM): 0.507
relative viability ([1]; first compound 1.265 µM): 0.463
relative viability ([1]; first compound 4 µM): 0.288
relative viability ([2]; first compound 0.04 µM): 0.634
relative viability ([2]; first compound 0.1265 µM): 0.612
relative viability ([2]; first compound 0.4 µM): 0.605
relative viability ([2]; first compound 1.265 µM): 0.616
relative viability ([2]; first compound 4 µM): 0.521
relative viability ([3]; first compound 0.04 µM): 0.464
relative viability ([3]; first compound 0.1265 µM): 0.538
relative viability ([3]; first compound 0.4 µM): 0.614
relative viability ([3]; first compound 1.265 µM): 0.506
relative viability ([3]; first compound 4 µM): 0.6
relative viability ([4]; first compound 0.04 µM): 0.497
relative viability ([4]; first compound 0.1265 µM): 0.491
relative viability ([4]; first compound 0.4 µM): 0.587
relative viability ([4]; first compound 1.265 µM): 0.51
relative viability ([4]; first compound 4 µM): 0.214
relative viability ([5]; first compound 0.04 µM): 0.36
relative viability ([5]; first compound 0.1265 µM): 0.336
relative viability ([5]; first compound 0.4 µM): 0.344
relative viability ([5]; first compound 1.265 µM): 0.367
relative viability ([5]; first compound 4 µM): 0.214
relative viability ([6]; first compound 0.04 µM): 0.48
relative viability ([6]; first compound 0.1265 µM): 0.457
relative viability ([6]; first compound 0.4 µM): 0.488
relative viability ([6]; first compound 1.265 µM): 0.461
relative viability ([6]; first compound 4 µM): 0.39
relative viability ([7]; first compound 0.04 µM): 0.711
relative viability ([7]; first compound 0.1265 µM): 0.657
relative viability ([7]; first compound 0.4 µM): 0.697
relative viability ([7]; first compound 1.265 µM): 0.558
relative viability ([7]; first compound 4 µM): 0.502
relative viability ([8]; first compound 0.04 µM): 0.268
relative viability ([8]; first compound 0.1265 µM): 0.246
relative viability ([8]; first compound 0.4 µM): 0.216
relative viability ([8]; first compound 1.265 µM): 0.129
relative viability ([8]; first compound 4 µM): 0.139
relative viability ([9]; first compound 0.04 µM): 0.437
relative viability ([9]; first compound 0.1265 µM): 0.416
relative viability ([9]; first compound 0.4 µM): 0.354
relative viability ([9]; first compound 1.265 µM): 0.365
relative viability ([9]; first compound 4 µM): 0.188
relative viability ([10]; first compound 0.04 µM): 0.662
relative viability ([10]; first compound 0.1265 µM): 0.65
relative viability ([10]; first compound 0.4 µM): 0.654
relative viability ([10]; first compound 1.265 µM): 0.725
relative viability ([10]; first compound 4 µM): 0.718
relative viability ([11]; first compound 0.04 µM): 0.38
relative viability ([11]; first compound 0.1265 µM): 0.354
relative viability ([11]; first compound 0.4 µM): 0.381
relative viability ([11]; first compound 1.265 µM): 0.416
relative viability ([11]; first compound 4 µM): 0.328
relative viability ([12]; first compound 0.04 µM): 0.552
relative viability ([12]; first compound 0.1265 µM): 0.58
relative viability ([12]; first compound 0.4 µM): 0.525
relative viability ([12]; first compound 1.265 µM): 0.461
relative viability ([12]; first compound 4 µM): 0.384
relative viability ([13]; first compound 0.04 µM): 0.897
relative viability ([13]; first compound 0.1265 µM): 0.647
relative viability ([13]; first compound 0.4 µM): 0.548
relative viability ([13]; first compound 1.265 µM): 0.525
relative viability ([13]; first compound 4 µM): 0.291
relative viability ([14]; first compound 0.04 µM): 0.528
relative viability ([14]; first compound 0.1265 µM): 0.488
relative viability ([14]; first compound 0.4 µM): 0.4
relative viability ([14]; first compound 1.265 µM): 0.461
relative viability ([14]; first compound 4 µM): 0.231
relative viability ([15]; first compound 0.04 µM): 0.335
relative viability ([15]; first compound 0.1265 µM): 0.368
relative viability ([15]; first compound 0.4 µM): 0.324
relative viability ([15]; first compound 1.265 µM): 0.229
relative viability ([15]; first compound 4 µM): 0.344
relative viability ([16]; first compound 0.04 µM): 0.345
relative viability ([16]; first compound 0.1265 µM): 0.364
relative viability ([16]; first compound 0.4 µM): 0.333
relative viability ([16]; first compound 1.265 µM): 0.371
relative viability ([16]; first compound 4 µM): 0.355
relative viability ([17]; first compound 0.04 µM): 0.717
relative viability ([17]; first compound 0.1265 µM): 0.69
relative viability ([17]; first compound 0.4 µM): 0.598
relative viability ([17]; first compound 1.265 µM): 0.472
relative viability ([17]; first compound 4 µM): 0.415
relative viability ([18]; first compound 0.04 µM): 0.146
relative viability ([18]; first compound 0.1265 µM): 0.124
relative viability ([18]; first compound 0.4 µM): 0.174
relative viability ([18]; first compound 1.265 µM): 0.0974
relative viability ([18]; first compound 4 µM): 0.0828
relative viability ([19]; first compound 0.04 µM): 0.663
relative viability ([19]; first compound 0.1265 µM): 0.595
relative viability ([19]; first compound 0.4 µM): 0.624
relative viability ([19]; first compound 1.265 µM): 0.608
relative viability ([19]; first compound 4 µM): 0.643
relative viability ([20]; first compound 0.04 µM): 0.295
relative viability ([20]; first compound 0.1265 µM): 0.626
relative viability ([20]; first compound 0.4 µM): 0.448
relative viability ([20]; first compound 1.265 µM): 0.41
relative viability ([20]; first compound 4 µM): 0.487
relative viability ([21]; first compound 0.04 µM): 0.565
relative viability ([21]; first compound 0.1265 µM): 0.589
relative viability ([21]; first compound 0.4 µM): 0.415
relative viability ([21]; first compound 1.265 µM): 0.51
relative viability ([21]; first compound 4 µM): 0.431
relative viability ([22]; first compound 0.04 µM): 0.421
relative viability ([22]; first compound 0.1265 µM): 0.4
relative viability ([22]; first compound 0.4 µM): 0.407
relative viability ([22]; first compound 1.265 µM): 0.371
relative viability ([22]; first compound 4 µM): 0.241
relative viability ([23]; first compound 0.04 µM): 0.701
relative viability ([23]; first compound 0.1265 µM): 0.721
relative viability ([23]; first compound 0.4 µM): 0.664
relative viability ([23]; first compound 1.265 µM): 0.421
relative viability ([23]; first compound 4 µM): 0.416
relative viability ([24]; first compound 0.04 µM): 0.602
relative viability ([24]; first compound 0.1265 µM): 0.584
relative viability ([24]; first compound 0.4 µM): 0.447
relative viability ([24]; first compound 1.265 µM): 0.306
relative viability ([24]; first compound 4 µM): 0.324
